From a melting point compilation (Tetko et al.; mined from patent text by program, amines drawn as free bases though some values may be those of a salt)

| melting point [°C] | Compound |
| --- | --- |
| 110 to 112 | CN(Cc1ccccc1)[C@H](Cc1c[nH]c2ccccc12)c1nc(-c2ccccc2)c[nH]1 |
| 193 | CN(C)CCNS(=O)(=O)c1cccc([N+](=O)[O-])c1C(=O)O |
| 153 to 155 | COc1cccc(-c2cn(C)cc(-c3cccc(C(F)(F)F)c3)c2=O)c1OC |
| 139 | S=C(N1CCOCC1)C1(c2ccccn2)CCCS1 (configuration not stated) |
| 134 | CCOC(=O)C1CCc2ccc3[nH]c(C(F)(F)F)nc3c2O1 (configuration not stated) |
| 112 to 115 | OC(Cn1ccnc1)c1cccc2ccccc12 (configuration not stated) |
| 205 to 207 | O=c1c2c(F)cccc2nc2sccn12 |
| 215 to 216 | O=C1C=Cc2ccc3ncccc3c2C1=O |
| 198 to 199 | COc1c(F)cc2c(c1-c1ccc(C[C@H](NC(=O)c3c(Cl)cccc3Cl)C(=O)O)cc1)OCO2 |
| 46 to 48 | CCOC(=O)C(Cc1ccc(OCCN2CCC(C)(C)c3cc(C(=NO)c4ccccc4)ccc32)cc1)OCC (configuration not stated) |
| 178 to 180 | CCOc1ccc(O)c2c1C(=O)N(CSc1nnnn1-c1ccccc1)S2(=O)=O |
| 210 to 212 | CC12CCC(=O)C=C1C(=O)CC1C2CCC2(C)C(c3cccnc3)=CCC12 (configuration not stated) |
| > 300 | O=C1Nc2ccc(C(F)(F)F)cc2C1c1nc(Cl)nc2nn(C3CCCC3)cc12 (configuration not stated) |
| 138 to 141 | Cc1noc(NS(=O)(=O)c2ccc(Cl)cc2Cl)c1Br |
| 154 to 156 | CCCCCCCCCCCCCCCCNC(=O)c1cc(O)cc(O)c1 |
| 183 to 185 | Cn1nc(-c2cccnc2)c(C=Cc2ccccc2C(=O)O)c1Cl |
| 53 to 54 | CCC(=C1SCCCS1)c1ccc(Oc2ccccc2)cc1 |
| 97 to 98 | CCOC(=O)c1c(O)nc(SC(C)C)n1C(C)C |
| 206 | CN(C(=O)CN(C(=O)CNC(=O)Nc1cccc(Cc2nnn[nH]2)c1)c1ccccc1)c1ccccc1 |
| 33 to 37 | CCCCCCCCCC(N)CCCCCCCCC(N)CCCCCCCCC (configuration not stated) |
| 152 to 154 | COC(=O)c1ccc(N2CCOCC2)cc1 |
| 234 to 235 | CS(=O)c1ccc(-c2coc3ccc(-c4nnc(S)o4)cc23)cc1 (configuration not stated) |
| 62 | O=Cc1cccc2cc(C(=O)OCc3ccccc3)[nH]c12 |

| melting point [°C] | Compound |
| --- | --- |
| 83 to 84 | COC(=O)COc1cccc2c(CNS(=O)(=O)CCOc3ccccc3)coc12 |
| 94 to 95 | Cc1ccc(Sc2cncc3sccc23)cc1 |
| 107 to 109 | CCCc1c(OCc2c(CCCCc3cccnc3)ccc(C(N)=O)c2OCC)ccc(C(C)=O)c1O |
| 232 to 235 | COc1ccc2c(c1OCCc1ccccc1)CC(C(=O)O)NC2 (racemic) |
| 107 to 109 | Nc1c(OC[C@@H]2CO2)cccc1[N+](=O)[O-] |
| 112 to 113 | Cc1cccc(OCC(=S)NCCNC(=S)Nc2ccccc2)c1C |
| 132 to 134 | CCC12CCC3=C(CCc4cc(OC(C)=O)ccc43)C1CCC2=O (configuration not stated) |
| 198 | CC(C)CN(C)c1cc2c(cc1C(F)(F)F)NC(=O)CC(c1cccc(-n3cncn3)c1)=N2 |
| 158 to 161 | COC(=O)c1cccc2cc(-c3ccc(N)cc3)oc12 |
| 130 | O=C(N[C@H]1CCN(CCCOc2ccc(F)cc2)C[C@H]1O)c1ccccc1 (relative stereo) |
| 165 to 167 | CC(O)c1ccc(-c2ccc(OCc3ccc(Cl)cc3)cc2)cc1 (single isomer, unassigned; (+)) |
| 63 to 65 | CC#CCOc1ccc(S(=O)(=O)NCCC(=O)OC(C)(C)C)cc1 |
| 142 to 146 | OCCN1CCC(=C2c3ccccc3Oc3ccc(Br)cc32)CC1 |
| 174 to 175 | O=C(NCc1ccccc1)N1CC(Oc2cccc(C(F)(F)F)c2)C1 |
| 135 to 138 | COc1ccc2c(c1)-c1noc(O)c1CC2 |
| 152 to 154 | Cn1c(C(F)(F)F)cc(=O)n(-c2cc(OS(=O)(=O)c3ccc(Cl)cc3)c(Cl)cc2F)c1=O |
| 101 to 102 | Oc1cc(OCC(O)COc2ccccc2)ccc1C(=S)c1ccc(-c2ccccc2)cc1 (configuration not stated) |
| 253 | c1ccc(-c2ncc(-c3cnc(-c4ccccc4)[nH]3)cn2)cc1 |
| 136 to 137 | CCCc1nc2c(N)nc(C)c(C)c2n1CCCCN(OC)C(=O)c1ccccc1 |
| 63 to 65 | O=[N+]([O-])c1cc(Cl)c(Cl)cc1O |
| 93 to 95 | CC(=O)N1CCC(CCC(=O)c2ccc3c(c2)CCO3)CC1 |
| 80 to 84 | COc1ccccc1C(=O)CC(=O)c1ccccc1O |
| 158 to 159 | COc1cc2c(c3c1OC(C)(C)C3)C(c1ccc(=O)n(C)c1)=NC(C)(C)C2 |

| melting point [°C] | Compound |
| --- | --- |
| 44 to 46 | C=CC(=O)Oc1ccc(C(=O)c2ccccc2)cc1 |
| 134 to 135 | N#Cc1ccc(CC(NC(=O)OCc2ccccc2)C(=O)NCC(=O)NCCC(=O)OCc2ccccc2)cc1 (racemic) |
| 252 to 253 | Cc1c(Cc2ccccc2)c(=O)n(Cc2ccccc2)c2cc(OCC(N)=O)cc(OCC(N)=O)c12 |
| 194 to 196 | Cc1nc(O)c([N+](=O)[O-])c(Cl)n1 |
| 242 to 246 | O=C1NC(N2CCN(c3cnccn3)CC2)c2ccccc21 (configuration not stated) |
| 220 to 221 | CCC(CC)Nc1cc(C(=O)O)ccc1N1C(=O)CCC1(CO)CO |
| 255 to 256 | CNc1nn(C)c2nc3n(c(=O)c12)CCS3 |
| 153 to 155 | CC(C)c1ccc2c(CCCCN(C)S(=O)(=O)c3ccccc3)cc(C(=O)O)c-2cc1 |
| 245 | O=C1NC(=S)C(=Cc2cc(O)c(O)c([N+](=O)[O-])c2)O1 |
| 146 to 148 | O=C(CCCCN1CCOCC1)c1ccc2c(c1)C(=O)c1cc(C(=O)CCCCN3CCOCC3)ccc1-2 |
| 207 | CC(C)n1c(C=CC=O)c(-c2ccc(F)cc2)c(-c2ccc(F)cc2)c1C=CC=O |
| 218 to 221 | COc1ccc(NC(=O)c2ccc(F)c(F)c2)cc1NCc1cccc(C(=O)O)c1 |
| 78 to 79 | C=C(C1=C(CCC(=O)OC)C(=O)CC1OC(C)=O)c1ccccc1 (configuration not stated) |
| 150 | CCn1ccc(=O)[nH]c1=O |
| 137 to 138 | COc1cc(Br)cc([N+](=O)[O-])c1N |
| 255 | c1ccc(-c2cc3nnc(-c4cnccn4)n3nc2OCc2nc[nH]n2)cc1 |
| 123 to 124 | ON=C1CCSc2sccc21 |
| 110 to 112 | C=CCn1c(=O)c(C(=O)OCC)c(O)c2ccc(C)nc21 |
| 225 | CC(=O)c1ccc2[nH]c(C(=O)c3ccc(Cl)cc3)c(CC(=O)O)c2c1 |
| 179 to 180 | CCC(=Cc1ccc(C(=O)O)cc1Cl)[N+](=O)[O-] |
| 223 to 225 | Cc1oc(-c2ccccc2)nc1CCOc1ccc(S(=O)(=O)Nc2cc(Cl)ccc2C(=O)O)cc1 |
| 130 to 131 | Cc1cccc(CNC(=O)c2ccc3n2Cc2ccccc2N(C(=O)COc2ccc(Cl)cc2)C3)c1 |
| 102 | COc1cc(/C=C/C(=O)O)cc(OC)c1OCc1ccccc1 |

| melting point [°C] | Compound |
| --- | --- |
| 74 to 76 | OC1C(COCC(F)(F)F)OC(n2cnc3c(NC4CCCC4)ncnc32)C1O (configuration not stated) |
| 94 to 96 | CCOC(=O)c1cnc2ccc(CC)nc2c1Cl |
| 115 to 118 | COCCON=C(C1=C(O)C(=O)N(c2ccc(C)nn2)C1c1ccc(OC(F)(F)F)cc1)c1ccc(C(C)C)cc1 (configuration not stated) |
| 249 | CCC(=O)NC1(c2ccccc2Cl)C(=O)N(Cc2ccc(C(=O)NC(C)(C)C)cc2OC)c2ccc(Cl)cc21 (configuration not stated) |
| 165 to 166 | CS(=O)(=O)Nc1cc2occ(CO)c(=O)c2cc1Oc1ccccc1 |
| 173 to 175 | CSc1ccc(-c2nc(SC)c(C(=O)O)c(=O)n2-c2ccc(C)cc2)cc1 |
| 142 to 144 | N#Cc1c(N2CCCCC2)cc(-c2ccc3ccccc3c2)c2c1Cc1ccccc1-2 |
| 165 to 166 | COc1ccc(OC)c(NC(=O)c2cccc3cc(O)ccc23)c1 |
| 175 to 177 | C=C(CCC(C)C1CCC2(O)C3=C(C(=O)CC12C)C1(C)CCC(=O)C(C)C1CC3O)C(C)C(=O)O (configuration not stated) |
| 137 to 139 | Cc1cc(C)c(N2CCC2=O)cc1NS(=O)(=O)C(F)(F)F |
| 178 to 181 | Cc1ccc2c(-c3cc(C(C)(C)C)c(O)c(C(C)(C)C)c3)nn(C)c2n1 |
| 92 to 94 | CC(=O)N1CCc2ccc(C(=O)CCCC3CCN(Cc4ccc(F)cc4)CC3)cc2CC1 |
| 59 to 60 | CC(C)C(C)(C)C(O)(COc1ccc(Cl)cc1)Cn1cncn1 (configuration not stated) |
| 130 to 139 | CSc1ccc(-c2cnn(CC(F)(F)F)c(=O)c2Cl)cc1 |
| 113 to 114 | CC(C)C(O)(C#Cc1cccs1)c1cncnc1 (configuration not stated) |
| 186 | CC(C)N1CCN(C(=O)COC2c3ccccc3C(=O)N2c2ccc3ccc(Cl)nc3n2)CC1 (configuration not stated) |
| 150 to 151 | COCCNC(=O)c1cccc(-c2cccc3c2nc(Oc2ccc(Cl)c(F)c2)n3C)c1 |
| 56 to 58 | COc1ccc(F)c(NCc2ccccc2)c1 |
| 247 to 250 | NS(=O)(=O)c1cc2[nH]c(CO)nc2cc1Cl |
| 128 to 129 | Cc1nn(-c2ccc(C(F)(F)F)cn2)cc1COc1cc(CO)n(C)n1 |
| 152 to 156 | CC(C)Cn1nc(-c2ccc(F)cc2F)cc(CN2C(=O)c3ccccc3C2=O)c1=O |
| 131 to 132 | CCCOc1c(OC)cc(C(C#N)CCC(C#N)c2cc(OC)c(OC)c(OC)c2)cc1SC (configuration not stated) |
| 156 | Cn1nc(-n2ncc(C(N)=S)c2N)c(Cl)c1OC(F)F |

| Compound | melting point [°C] |
| --- | --- |
| COc1nc2nc(C(OC(C)=O)C3(Br)C(=O)N4C(C(=O)OCc5ccc([N+](=O)[O-])cc5)=CSC43)cn2c2c1CCC2 (configuration not stated) | 119 |
| COc1ccc(-c2c(-c3cc(OC)c(OC)c(OC)c3)ncn2-c2ccccc2)cc1O | 176 to 177 |
| O=c1oc2ccccc2c(O)c1[C@@H]1C[C@@H](c2ccc(OCc3ccc(C(F)(F)F)cc3)cc2)Cc2ccccc21 (relative stereo) | 153 to 155 |
| CCCc1c(C(=O)C(C)C)c2ccc(C(=O)OC)cc2n1Cc1c(Cl)cccc1Cl | 130 to 132 |
| O=c1[nH]c2c(O)cccc2c(=O)n1CCCN1CC=C(c2ccc(Cl)cc2)CC1 | 284 to 286 |
